Measurements published in patent US10681909B2, “Herbicidal triazoles” (FMC Corporation, priority 2014, dated 2020).

Tests used:
pigweed [1] = experiment: Test A preemergence; assay type: in vivo, Amaranthus retroflexus; conditions: 0 to 100 scale (0 no effect, 100 complete control)
Text: (§1) Seeds of plant species selected from barnyardgrass (Echinochloa crus-galli), crabgrass, large (large crabgrass, Digitaria sanguinalis), kochia (Kochia scoparia), ragweed (common ragweed, Ambrosia elatior), foxtail, giant (giant foxtail, Setaria faberii), morningglory (Ipomoea spp.), pigweed (Amaranthus retroflexus), velvetleaf (Abutilon theophrasti), ryegrass, Italian (Italian ryegrass, Lolium multiflorum), wheat (Triticum aestivum), and corn (Zea mays) were planted into a blend of loam soil and sand and treated preemergence with a directed soil spray using test chemicals formulated in a non-phytotoxic solvent mixture which included a surfactant. At the same time, plants selected from these crop and weed species and also blackgrass (Alopecurus myosuroides), and galium (catchweed bedstraw, Galium aparine), were planted in pots containing the same blend of loam soil and sand and treated with postemergence applications of test chemicals formulated in the same manner. Plants ranged in height from 2 to 10 cm and were in the one- to two-leaf stage for the postemergence treatment. […] A dash (-) response means no test result.

ryegrass, Italian [2] = experiment: Test A preemergence; assay type: in vivo, Lolium multiflorum; conditions: 0 to 100 scale (0 no effect, 100 complete control)
Text: (§2) Seeds of plant species selected from barnyardgrass (Echinochloa crus-galli), crabgrass, large (large crabgrass, Digitaria sanguinalis), kochia (Kochia scoparia), ragweed (common ragweed, Ambrosia elatior), foxtail, giant (giant foxtail, Setaria faberii), morningglory (Ipomoea spp.), pigweed (Amaranthus retroflexus), velvetleaf (Abutilon theophrasti), ryegrass, Italian (Italian ryegrass, Lolium multiflorum), wheat (Triticum aestivum), and corn (Zea mays) were planted into a blend of loam soil and sand and treated preemergence with a directed soil spray using test chemicals formulated in a non-phytotoxic solvent mixture which included a surfactant.
(§3) At the same time, plants selected from these crop and weed species and also blackgrass (Alopecurus myosuroides), and galium (catchweed bedstraw, Galium aparine), were planted in pots containing the same blend of loam soil and sand and treated with postemergence applications of test chemicals formulated in the same manner. Plants ranged in height from 2 to 10 cm and were in the one- to two-leaf stage for the postemergence treatment. Treated plants and untreated controls were maintained in a greenhouse for approximately 10 d, after which time all treated plants were compared to untreated controls and visually evaluated for injury. Plant response ratings, summarized in Table A, are based on a 0 to 100 scale where 0 is no effect and 100 is complete control. A dash (-) response means no test result.

corn = experiment: Test A postemergence; assay type: in vivo, Zea mays; conditions: 0 to 100 scale (0 no effect, 100 complete control), approx. 10 d
Text: as §1

barnyardgrass [3] = experiment: Test A postemergence; assay type: in vivo, Echinochloa crus-galli; conditions: 0 to 100 scale (0 no effect, 100 complete control), approx. 10 d
Text: as §1

blackgrass = experiment: Test A postemergence; assay type: in vivo, Alopecurus myosuroides; conditions: 0 to 100 scale (0 no effect, 100 complete control), approx. 10 d
Text: as §2, §3

kochia [4] = experiment: Test A preemergence; assay type: in vivo, Kochia scoparia; conditions: 0 to 100 scale (0 no effect, 100 complete control)
Text: as §2, §3

ryegrass, Italian [5] = experiment: Test A postemergence; assay type: in vivo, Lolium multiflorum; conditions: 0 to 100 scale (0 no effect, 100 complete control), approx. 10 d
Text: as §2, §3

barnyardgrass [6] = experiment: Test A preemergence; assay type: in vivo, Echinochloa crus-galli; conditions: 0 to 100 scale (0 no effect, 100 complete control)
Text: as §1

foxtail, giant [7] = experiment: Test A postemergence; assay type: in vivo, Setaria faberii; conditions: 0 to 100 scale (0 no effect, 100 complete control), approx. 10 d
Text: as §1

wheat = experiment: Test A postemergence; assay type: in vivo, Triticum aestivum; conditions: 0 to 100 scale (0 no effect, 100 complete control), approx. 10 d
Text: as §1

foxtail, giant [8] = experiment: Test A preemergence; assay type: in vivo, Setaria faberii; conditions: 0 to 100 scale (0 no effect, 100 complete control)
Text: as §1

pigweed [9] = experiment: Test A postemergence; assay type: in vivo, Amaranthus retroflexus; conditions: 0 to 100 scale (0 no effect, 100 complete control), approx. 10 d
Text: as §1

ragweed [10] = experiment: Test A preemergence; assay type: in vivo, Ambrosia elatior; conditions: 0 to 100 scale (0 no effect, 100 complete control)
Text: as §2, §3

ragweed [11] = experiment: Test A postemergence; assay type: in vivo, Ambrosia elatior; conditions: 0 to 100 scale (0 no effect, 100 complete control), approx. 10 d
Text: as §2, §3

kochia [12] = experiment: Test A postemergence; assay type: in vivo, Kochia scoparia; conditions: 0 to 100 scale (0 no effect, 100 complete control), approx. 10 d
Text: as §2, §3

galium = experiment: Test A postemergence; assay type: in vivo, Galium aparine; conditions: 0 to 100 scale (0 no effect, 100 complete control), approx. 10 d
Text: as §2, §3

SMILES	Plant response rating, Pigweed (pigweed [1]; 31 g ai/ha)	Plant response rating, Pigweed (pigweed [1]; 125 g ai/ha)	Plant response rating, Ryegrass, Italian (ryegrass, Italian [2]; 31 g ai/ha)	Plant response rating, Ryegrass, Italian (ryegrass, Italian [2]; 125 g ai/ha)	Plant response rating, Corn (corn; 31 g ai/ha)	Plant response rating, Corn (corn; 125 g ai/ha)	Plant response rating, Barnyardgrass (barnyardgrass [3]; 31 g ai/ha)	Plant response rating, Barnyardgrass (barnyardgrass [3]; 125 g ai/ha)	Plant response rating, Blackgrass (blackgrass; 31 g ai/ha)	Plant response rating, Blackgrass (blackgrass; 125 g ai/ha)	Plant response rating, Kochia (kochia [4]; 31 g ai/ha)	Plant response rating, Kochia (kochia [4]; 125 g ai/ha)	Plant response rating, Ryegrass, Italian (ryegrass, Italian [5]; 31 g ai/ha)	Plant response rating, Ryegrass, Italian (ryegrass, Italian [5]; 125 g ai/ha)	Plant response rating, Barnyardgrass (barnyardgrass [6]; 31 g ai/ha)	Plant response rating, Barnyardgrass (barnyardgrass [6]; 125 g ai/ha)	Plant response rating, Foxtail, Giant (foxtail, giant [7]; 31 g ai/ha)	Plant response rating, Foxtail, Giant (foxtail, giant [7]; 125 g ai/ha)	Plant response rating, Wheat (wheat; 31 g ai/ha)	Plant response rating, Wheat (wheat; 125 g ai/ha)	other results
FC(F)(F)COc1nc(-c2ccc(C(F)(F)F)cc2)nn1Cc1ccnc(C(F)(F)F)c1 [Compound 34]	100	100	0	90	20	20	20	70	20	50	20	90	0	20	30	100	20	90	30	50	Plant response rating, Foxtail, Giant (foxtail, giant [8]; 31 g ai/ha): 100; Plant response rating, Foxtail, Giant (foxtail, giant [8]; 125 g ai/ha): 100; Plant response rating, Pigweed (pigweed [9]; 31 g ai/ha): 100; Plant response rating, Pigweed (pigweed [9]; 125 g ai/ha): 100; Plant response rating, Ragweed (ragweed [10]; 31 g ai/ha): 0; Plant response rating, Ragweed (ragweed [10]; 125 g ai/ha): 30; Plant response rating, Ragweed (ragweed [11]; 31 g ai/ha): 20; Plant response rating, Ragweed (ragweed [11]; 125 g ai/ha): 50; Plant response rating, Kochia (kochia [12]; 31 g ai/ha): 70; Plant response rating, Kochia (kochia [12]; 125 g ai/ha): 90; Plant response rating, Galium (galium; 31 g ai/ha): 30; Plant response rating, Galium (galium; 125 g ai/ha): 90
Cc1nc(-c2ccc(Br)cc2)nn1Cc1ccnc(C(F)(F)F)c1 [Compound 36]	90	90	0	10	20	30	0	20	10	30	60	90	0	0	0	60	20	70	0	10	Plant response rating, Foxtail, Giant (foxtail, giant [8]; 31 g ai/ha): 20; Plant response rating, Foxtail, Giant (foxtail, giant [8]; 125 g ai/ha): 90; Plant response rating, Pigweed (pigweed [9]; 31 g ai/ha): 90; Plant response rating, Pigweed (pigweed [9]; 125 g ai/ha): 100; Plant response rating, Ragweed (ragweed [10]; 31 g ai/ha): 0; Plant response rating, Ragweed (ragweed [10]; 125 g ai/ha): 20; Plant response rating, Ragweed (ragweed [11]; 31 g ai/ha): 0; Plant response rating, Ragweed (ragweed [11]; 125 g ai/ha): 30; Plant response rating, Kochia (kochia [12]; 31 g ai/ha): 70; Plant response rating, Kochia (kochia [12]; 125 g ai/ha): 90; Plant response rating, Galium (galium; 31 g ai/ha): 50; Plant response rating, Galium (galium; 125 g ai/ha): 90
Cc1nc(-c2ccc(OC(F)(F)F)cc2)nn1Cc1ccnc(C(F)(F)F)c1 [Compound 37]	10	20	0	0	10	20	0	0	0	20	0	0	0	0	0	0	0	0	0	0	Plant response rating, Foxtail, Giant (foxtail, giant [8]; 31 g ai/ha): 0; Plant response rating, Foxtail, Giant (foxtail, giant [8]; 125 g ai/ha): 0; Plant response rating, Pigweed (pigweed [9]; 31 g ai/ha): 20; Plant response rating, Pigweed (pigweed [9]; 125 g ai/ha): 80; Plant response rating, Ragweed (ragweed [10]; 31 g ai/ha): 0; Plant response rating, Ragweed (ragweed [10]; 125 g ai/ha): 0; Plant response rating, Ragweed (ragweed [11]; 31 g ai/ha): 0; Plant response rating, Ragweed (ragweed [11]; 125 g ai/ha): 0; Plant response rating, Kochia (kochia [12]; 31 g ai/ha): 20; Plant response rating, Kochia (kochia [12]; 125 g ai/ha): 70; Plant response rating, Galium (galium; 31 g ai/ha): 0; Plant response rating, Galium (galium; 125 g ai/ha): 20
Cc1nc(-c2ccc(F)cc2)nn1Cc1ccnc(C(F)(F)F)c1 [Compound 38]	90	100	0	10	10	30	0	20	10	40	30	100	0	0	0	80	20	80	0	10	Plant response rating, Foxtail, Giant (foxtail, giant [8]; 31 g ai/ha): 20; Plant response rating, Foxtail, Giant (foxtail, giant [8]; 125 g ai/ha): 100; Plant response rating, Pigweed (pigweed [9]; 31 g ai/ha): 80; Plant response rating, Pigweed (pigweed [9]; 125 g ai/ha): 90; Plant response rating, Ragweed (ragweed [10]; 31 g ai/ha): 0; Plant response rating, Ragweed (ragweed [10]; 125 g ai/ha): 20; Plant response rating, Ragweed (ragweed [11]; 31 g ai/ha): 0; Plant response rating, Ragweed (ragweed [11]; 125 g ai/ha): 30; Plant response rating, Kochia (kochia [12]; 31 g ai/ha): 70; Plant response rating, Kochia (kochia [12]; 125 g ai/ha): 90; Plant response rating, Galium (galium; 31 g ai/ha): 30; Plant response rating, Galium (galium; 125 g ai/ha): 90
